“And” between values parts separate entries of the source, which are not always exact repeats. Identical values can stand only once.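 Dose response: 5 concentrations. Exposure: 48 h. Format: 96-well plates. Endpoint: linear interpolation; highest concentration if not reached. GI50 = concentration required for 50% inhibition of growth. The concentration for full growth arrest is given as TGI.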
What was measured:
Assay in all cases: NCI tumour cell line growth inhibition, 48 h
SN12C renal = system: SN12C renal
NCI-H226 lung = system: NCI-H226 lung
SNB-75 CNS = system: SNB-75 CNS
EKVX NSCLC = system: EKVX NSCLC
HCT-15 colon = system: HCT-15 colon
SK-MEL-28 melanoma = system: SK-MEL-28 melanoma
SK-MEL-2 melanoma = system: SK-MEL-2 melanoma
DLD-1 colon = system: DLD-1 colon
DU-145 prostate = system: DU-145 prostate
MDA-N = system: MDA-N

With `COC(CC1(OC)OC(=O)C=C1N)OC` (centres undefined) the TGI (SN12C renal) was > 100 µM, the TGI (NCI-H226 lung) was > 100 µM and the TGI (SNB-75 CNS) was > 100 µM. The TGI (EKVX NSCLC) was > 100 µM, the TGI (HCT-15 colon) was > 100 µM and the TGI (SK-MEL-28 melanoma) was > 100 µM. The TGI (SK-MEL-2 melanoma) was > 100 µM and the TGI (DLD-1 colon) was > 100 µM.
For `CCCCCCSc1nc(COC(=O)NC)c(COC(=O)NC)n1C`, the TGI (SN12C renal) was > 100 µM, the TGI (NCI-H226 lung) was > 100 µM and the TGI (SNB-75 CNS) was > 100 µM. The TGI (EKVX NSCLC) was > 100 µM, the TGI (HCT-15 colon) was > 100 µM and the TGI (SK-MEL-28 melanoma) was > 100 µM. For the same molecule, the TGI (DU-145 prostate) was > 100 µM, the TGI (MDA-N) was > 100 µM and the TGI (SK-MEL-2 melanoma) was > 100 µM.
For `CC1CC(c2ccc(Cl)c(Cl)c2)=Nc2ccccc2S1` (centres undefined), the TGI (SN12C renal) was > 100 µM, the TGI (NCI-H226 lung) was > 100 µM and the TGI (SNB-75 CNS) was > 100 µM. The TGI (EKVX NSCLC) was > 100 µM, the TGI (HCT-15 colon) was > 100 µM and the TGI (SK-MEL-28 melanoma) was > 100 µM. The TGI (DLD-1 colon) was > 100 µM.
With `NC(=O)c1cc([N+](=O)[O-])cc([N+](=O)[O-])c1` the TGI (SN12C renal) was > 100 µM, the TGI (NCI-H226 lung) was > 100 µM and the TGI (SNB-75 CNS) was > 100 µM. For the same molecule, the TGI (EKVX NSCLC) was > 100 µM, the TGI (HCT-15 colon) was > 100 µM and the TGI (SK-MEL-28 melanoma) was > 100 µM. For the same molecule, the TGI (SK-MEL-2 melanoma) was > 100 µM and the TGI (DLD-1 colon) was > 100 µM.
In the case of `COC(=O)C1=C(\O)C[C@@]2(C)CC[C@@H](C(=O)OC)C2C/C=C\1C(=O)OC` (some centres undefined), the TGI (SN12C renal) is reported as > 100 µM, the TGI (NCI-H226 lung) is reported as > 100 µM and the TGI (SNB-75 CNS) is reported as > 100 µM. For the same molecule, the TGI (EKVX NSCLC) was > 100 µM, the TGI (HCT-15 colon) was > 100 µM and the TGI (SK-MEL-28 melanoma) was > 100 µM. For the same molecule, the TGI (DLD-1 colon) was > 100 µM.
`C=C1C(=O)C2(C)OC2(C)C1C(=O)O` (centres undefined) was tested, and the TGI (SN12C renal) was > 100 µM, the TGI (NCI-H226 lung) was > 100 µM and the TGI (SNB-75 CNS) was > 100 µM. The TGI (EKVX NSCLC) was > 100 µM, the TGI (HCT-15 colon) was > 100 µM and the TGI (SK-MEL-28 melanoma) was > 100 µM. The TGI (DU-145 prostate) was > 100 µM, the TGI (MDA-N) was > 100 µM and the TGI (SK-MEL-2 melanoma) was > 100 µM.
`O=C(/C=C/c1ccc(O)cc1)c1cc(Cl)ccc1O` was tested, and the TGI (SN12C renal) was > 100 µM, the TGI (NCI-H226 lung) was > 100 µM and the TGI (SNB-75 CNS) was > 100 µM. For the same molecule, the TGI (EKVX NSCLC) was > 100 µM, the TGI (SK-MEL-28 melanoma) was > 100 µM and the TGI (DLD-1 colon) was > 100 µM.
For `c1ccc2c(c1)N=C(c1ccc3ccccc3c1)CC(c1cccc3ccccc13)S2` (centres undefined), the TGI (SN12C renal) was > 100 µM, the TGI (NCI-H226 lung) was > 100 µM and the TGI (SNB-75 CNS) was > 100 µM. The TGI (EKVX NSCLC) was > 100 µM, the TGI (HCT-15 colon) was > 100 µM and the TGI (SK-MEL-28 melanoma) was > 100 µM. The TGI (SK-MEL-2 melanoma) was > 100 µM and the TGI (DLD-1 colon) was > 100 µM.
With `O=C1C(Br)=CC2(C=C1Br)CCNc1c(O)c3c4c(c12)=NCCC=4C=N3` the TGI (SN12C renal) was 0.344 µM, the TGI (NCI-H226 lung) was 2.74 µM and the TGI (SNB-75 CNS) was 2.16 µM. The TGI (EKVX NSCLC) was 0.521 µM, the TGI (HCT-15 colon) was 0.197 µM and the TGI (SK-MEL-28 melanoma) was 0.416 µM. The TGI (DU-145 prostate) was 1.49 µM, the TGI (MDA-N) was 0.245 µM and the TGI (SK-MEL-2 melanoma) was 0.428 µM. It also gave a TGI (DLD-1 colon) of 0.0798 µM.
In the case of `CCCCCCCCCCCC(=O)OC(COC(N)=O)COc1ccc(Cl)cc1` (centres undefined), the TGI (SN12C renal) is reported as 70 µM, the TGI (NCI-H226 lung) is reported as 46.1 µM and the TGI (SNB-75 CNS) is reported as > 100 µM. The TGI (EKVX NSCLC) was 92.1 µM, the TGI (HCT-15 colon) was 91.3 µM and the TGI (SK-MEL-28 melanoma) was 36.2 µM. The TGI (SK-MEL-2 melanoma) was 74.4 µM and the TGI (DLD-1 colon) was > 100 µM.
For `O=c1c2cc(O)c(O)cc2oc2cc(O)c(C3OC(CO)C(O)C(O)C3O)c(O)c12` (centres undefined), the TGI (NCI-H226 lung) was > 100 µM, the TGI (SNB-75 CNS) was > 100 µM and the TGI (EKVX NSCLC) was > 100 µM. For the same molecule, the TGI (HCT-15 colon) was > 100 µM, the TGI (SK-MEL-28 melanoma) was > 100 µM and the TGI (MDA-N) was > 100 µM. For the same molecule, the TGI (SK-MEL-2 melanoma) was > 100 µM.
With `COC(=O)NC(=O)c1cn(C2CCCCC2)c(=O)[nH]c1=O` the TGI (SN12C renal) was > 100 µM, the TGI (NCI-H226 lung) was > 100 µM and the TGI (SNB-75 CNS) was > 100 µM. For the same molecule, the TGI (HCT-15 colon) was > 100 µM, the TGI (SK-MEL-28 melanoma) was > 100 µM and the TGI (SK-MEL-2 melanoma) was > 100 µM. For the same molecule, the TGI (DLD-1 colon) was > 100 µM.
In the case of `COc1cc(/C=C/c2ccccn2)cc(OC)c1OC`, the TGI (SN12C renal) is reported as > 10 µM, the TGI (NCI-H226 lung) is reported as > 10 µM and the TGI (SNB-75 CNS) is reported as > 10 µM. The TGI (EKVX NSCLC) was > 10 µM, the TGI (HCT-15 colon) was > 10 µM and the TGI (SK-MEL-28 melanoma) was > 10 µM. The TGI (DU-145 prostate) was > 10 µM, the TGI (MDA-N) was > 10 µM and the TGI (SK-MEL-2 melanoma) was > 10 µM.
`CC12CC(=O)C3C(CCC4=CC(=O)CCC43C)C1CC=C2CC(=O)O` (centres undefined) was tested, and the TGI (SN12C renal) was > 100 µM, the TGI (NCI-H226 lung) was > 100 µM and the TGI (SNB-75 CNS) was > 100 µM. The TGI (EKVX NSCLC) was > 100 µM, the TGI (HCT-15 colon) was > 100 µM and the TGI (SK-MEL-28 melanoma) was > 100 µM. The TGI (DU-145 prostate) was > 100 µM, the TGI (MDA-N) was > 100 µM and the TGI (SK-MEL-2 melanoma) was > 100 µM.
`CC1(C)CC(N2CCN(C3CC(C)(C)NC(C)(C)C3)CC2)CC(C)(C)N1` was tested, and the TGI (SN12C renal) was > 100 µM, the TGI (SNB-75 CNS) was > 100 µM and the TGI (EKVX NSCLC) was > 100 µM. The TGI (HCT-15 colon) was > 100 µM, the TGI (SK-MEL-28 melanoma) was > 100 µM and the TGI (DLD-1 colon) was > 100 µM.
For `CCc1ccc([O-])c(C=NCCCN(C)CCCN=Cc2cc(C)ccc2[O-])c1.[Co+3].[N-]=[N+]=[N-]`, the GI50 (SN12C renal) was 50 µg/mL and 61.8 µg/mL, the TGI (SN12C renal) was 50 µg/mL and > 150 µg/mL and the GI50 (NCI-H226 lung) was 50 µg/mL and 32.5 µg/mL. For the same molecule, the TGI (NCI-H226 lung) was 50 µg/mL and 88.6 µg/mL, the GI50 (SNB-75 CNS) was 1.38 µg/mL and 10 µg/mL and the GI50 (EKVX NSCLC) was 50 µg/mL and 103 µg/mL. For the same molecule, the TGI (EKVX NSCLC) was 50 µg/mL and > 150 µg/mL, the GI50 (HCT-15 colon) was 29.5 µg/mL and 35.9 µg/mL and the TGI (HCT-15 colon) was 50 µg/mL and > 150 µg/mL. The GI50 (SK-MEL-28 melanoma) was 50 µg/mL and 91.8 µg/mL, the TGI (SK-MEL-28 melanoma) was 50 µg/mL and > 150 µg/mL and the GI50 (DU-145 prostate) was 11.6 µg/mL. For the same molecule, the TGI (DU-145 prostate) was 50 µg/mL, the GI50 (MDA-N) was 50 µg/mL and the TGI (MDA-N) was 50 µg/mL. For the same molecule, the GI50 (SK-MEL-2 melanoma) was 50 µg/mL and 44.7 µg/mL, the TGI (SK-MEL-2 melanoma) was 50 µg/mL and 135 µg/mL and the GI50 (DLD-1 colon) was 61 µg/mL. The TGI (DLD-1 colon) was > 150 µg/mL.
In the case of `NCC1(N2CCOCC2)C2CCCC21CNc1ccccc1` (centres undefined), the TGI (SN12C renal) is reported as > 100 µM, the TGI (SNB-75 CNS) is reported as > 100 µM and the TGI (SK-MEL-28 melanoma) is reported as > 100 µM. For the same molecule, the TGI (DLD-1 colon) was > 100 µM.
In the case of `O=C1c2ccccc2C(=O)c2c1ccc1c2N=C(c2ccc(Br)cc2)CC(c2cccc3ccccc23)N1` (centres undefined), the TGI (SN12C renal) is reported as > 100 µM, the TGI (NCI-H226 lung) is reported as > 100 µM and the TGI (SNB-75 CNS) is reported as > 100 µM. The TGI (EKVX NSCLC) was > 100 µM, the TGI (HCT-15 colon) was > 100 µM and the TGI (SK-MEL-28 melanoma) was > 100 µM. For the same molecule, the TGI (SK-MEL-2 melanoma) was > 100 µM and the TGI (DLD-1 colon) was > 100 µM.
With `COC(=O)C1(C)CCCC2(C)c3cc(OC)ccc3C(=O)C(Br)C12` (centres undefined) the TGI (SN12C renal) was > 10 µM, the TGI (NCI-H226 lung) was > 10 µM and the TGI (EKVX NSCLC) was > 10 µM. The TGI (HCT-15 colon) was > 10 µM, the TGI (SK-MEL-28 melanoma) was > 10 µM and the TGI (DU-145 prostate) was > 10 µM. The TGI (MDA-N) was > 10 µM and the TGI (SK-MEL-2 melanoma) was > 10 µM.
With `NC(=O)c1ncn(Cc2ccccc2)c1CNC(N)=S` the TGI (SN12C renal) was > 100 µM, the TGI (NCI-H226 lung) was > 100 µM and the TGI (SNB-75 CNS) was > 100 µM. The TGI (EKVX NSCLC) was > 100 µM, the TGI (HCT-15 colon) was > 100 µM and the TGI (SK-MEL-28 melanoma) was > 100 µM. For the same molecule, the TGI (DLD-1 colon) was > 100 µM.

From PubChem BioAssay (NCI)
